Measured values: the supplement of paper PMC11451515

Legend:
Settings in all cases: 48 h
SEM cells [1] = assay: AUC of viability dose-response curve (% viability x log10 dose units); higher = less sensitive
Outline: (§1)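 Leukemia cells adapted to each medium were seeded in 1536-well plates (500 or 1000 cells/well) and given library compounds in DMSO for 48 h at 37°C. The 11 threefold doses spanned 47 μM to 0.79 nM, and CellTiter-Glo One luminescence was normalised per plate to DMSO and cell-free wells before four-parameter log-logistic fitting on log10 dose. Area under the curve was integrated with the trapezoidal rule, scaling curves above full viability and removing curves that failed quality control.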

NOMO1 [2] = assay: as above
Outline: as §1

P12-Ichikawa [3] = assay: cell viability relative to DMSO control; higher = less cytotoxic
Outline: (§2)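 NOMO1 or SEM (500 cells/well) or P12-Ichikawa (1000 cells/well) leukemia cells were adapted for at least four passages in each medium. They were seeded in 1536-well plates (5 μl) and pin-dosed with library compounds in DMSO over an 11-point threefold series, 47 μM to 0.79 nM. CellTiter-Glo One luminescence was read after 48 h at 37°C. Viability is the per-plate percentage relative to DMSO wells, with cell-free wells as background.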

SEM cells [4] = assay: as above
Outline: as §2

P12-Ichikawa [5] = assay: AUC of viability dose-response curve (% viability x log10 dose units); higher = less sensitive
Outline: as §1

NOMO1 [6] = assay: cell viability relative to DMSO control; higher = less cytotoxic
Outline: as §2

CN(C)CCCN1c2ccccc2CCc2ccc(Cl)cc21
AUC of viability dose-response curve
Settings	HPLM + 10% dialyzed FBS	RPMI 5 mM glucose + 10% FBS	RPMI 5 mM glucose + 10% dialyzed FBS
NOMO1 [2]	431	448	441
SEM cells [1]	453	453	452

Settings	cell viability [%]
P12-Ichikawa [3], RPMI 5 mM glucose + 10% dialyzed FBS, 0.000781 µM	71
P12-Ichikawa [3], RPMI 5 mM glucose + 10% dialyzed FBS, 0.00234 µM	155
P12-Ichikawa [3], RPMI 5 mM glucose + 10% dialyzed FBS, 0.00702 µM	125
P12-Ichikawa [3], RPMI 5 mM glucose + 10% dialyzed FBS, 0.0211 µM	145
P12-Ichikawa [3], RPMI 5 mM glucose + 10% dialyzed FBS, 0.0632 µM	138
P12-Ichikawa [3], RPMI 5 mM glucose + 10% dialyzed FBS, 0.19 µM	134
P12-Ichikawa [3], RPMI 5 mM glucose + 10% dialyzed FBS, 0.569 µM	142
P12-Ichikawa [3], RPMI 5 mM glucose + 10% dialyzed FBS, 1.71 µM	142
P12-Ichikawa [3], RPMI 5 mM glucose + 10% dialyzed FBS, 5.12 µM	134
P12-Ichikawa [3], RPMI 5 mM glucose + 10% dialyzed FBS, 15.4 µM	125
P12-Ichikawa [3], RPMI 5 mM glucose + 10% dialyzed FBS, 46.1 µM	82.9
SEM cells [4], HPLM + 10% dialyzed FBS, 0.000781 µM	122
SEM cells [4], HPLM + 10% dialyzed FBS, 0.00234 µM	132
SEM cells [4], HPLM + 10% dialyzed FBS, 0.00702 µM	122
SEM cells [4], HPLM + 10% dialyzed FBS, 0.0211 µM	134
SEM cells [4], HPLM + 10% dialyzed FBS, 0.0632 µM	118
SEM cells [4], HPLM + 10% dialyzed FBS, 0.19 µM	122
SEM cells [4], HPLM + 10% dialyzed FBS, 0.569 µM	125
SEM cells [4], HPLM + 10% dialyzed FBS, 1.71 µM	122
SEM cells [4], HPLM + 10% dialyzed FBS, 5.12 µM	105
SEM cells [4], HPLM + 10% dialyzed FBS, 15.4 µM	109
SEM cells [4], HPLM + 10% dialyzed FBS, 46.1 µM	39.6

O=C(Cc1ccc(-c2ccc(OCCN3CCOCC3)cc2)cn1)NCc1ccccc1
AUC of viability dose-response curve
Settings	HPLM + 10% dialyzed FBS	RPMI 5 mM glucose + 10% FBS	RPMI 5 mM glucose + 10% dialyzed FBS
NOMO1 [2]	294	263	277
P12-Ichikawa [5]	200	205	222

cell viability [%]
Settings	NOMO1 [6]	P12-Ichikawa [3]	SEM cells [4]
HPLM + 10% dialyzed FBS, 0.000781 µM	118	107	96
HPLM + 10% dialyzed FBS, 0.00234 µM	102	113	95.9
HPLM + 10% dialyzed FBS, 0.00702 µM	123	114	106
HPLM + 10% dialyzed FBS, 0.0211 µM	111	85.6	67.9
HPLM + 10% dialyzed FBS, 0.0632 µM	43.7	36.1	28.9
HPLM + 10% dialyzed FBS, 0.19 µM	41.9	17.3	22.9
HPLM + 10% dialyzed FBS, 0.569 µM	43.8	14	21.6
HPLM + 10% dialyzed FBS, 1.71 µM	53.7	13.2	20.8
HPLM + 10% dialyzed FBS, 5.12 µM	52.5	10.3	18.9
HPLM + 10% dialyzed FBS, 15.4 µM	56.6	9.64	15.2
HPLM + 10% dialyzed FBS, 46.1 µM	40.6	11.6	10.5
RPMI 5 mM glucose + 10% FBS, 0.000781 µM	124	114	79.9
RPMI 5 mM glucose + 10% FBS, 0.00234 µM	122	114	84.5
RPMI 5 mM glucose + 10% FBS, 0.00702 µM	117	123	87
RPMI 5 mM glucose + 10% FBS, 0.0211 µM	128	97	57.9
RPMI 5 mM glucose + 10% FBS, 0.0632 µM	71.9	40	18.9
RPMI 5 mM glucose + 10% FBS, 0.19 µM	27.1	25.9	12.9
RPMI 5 mM glucose + 10% FBS, 0.569 µM	33.2	15.6	14.8
RPMI 5 mM glucose + 10% FBS, 1.71 µM	34.1	15.1	13.6
RPMI 5 mM glucose + 10% FBS, 5.12 µM	32.5	10.4	12.2
RPMI 5 mM glucose + 10% FBS, 15.4 µM	31.3	8.04	4.65
RPMI 5 mM glucose + 10% FBS, 46.1 µM	33.7	8.38	2.89
RPMI 5 mM glucose + 10% dialyzed FBS, 0.000781 µM	118	122	93.6
RPMI 5 mM glucose + 10% dialyzed FBS, 0.00234 µM	108	118	90.8
RPMI 5 mM glucose + 10% dialyzed FBS, 0.00702 µM	124	119	93.8
RPMI 5 mM glucose + 10% dialyzed FBS, 0.0211 µM	112	112	70.8
RPMI 5 mM glucose + 10% dialyzed FBS, 0.0632 µM	62.5	33.3	30.3
RPMI 5 mM glucose + 10% dialyzed FBS, 0.19 µM	35.8	35	19.1
RPMI 5 mM glucose + 10% dialyzed FBS, 0.569 µM	35.2	22.9	22.4
RPMI 5 mM glucose + 10% dialyzed FBS, 1.71 µM	41.7	22.2	20
RPMI 5 mM glucose + 10% dialyzed FBS, 5.12 µM	40.6	13.6	17.3
RPMI 5 mM glucose + 10% dialyzed FBS, 15.4 µM	33.4	11.6	9.97
RPMI 5 mM glucose + 10% dialyzed FBS, 46.1 µM	42.7	16.6	7.04

CCO[C@@H]1OC(=O)C[C@@H]1NC(=O)[C@@H]1CCCN1C(=O)[C@@H](NC(=O)c1ccc(N)c(Cl)c1)C(C)(C)C
AUC of viability dose-response curve
Settings	NOMO1 [2]	P12-Ichikawa [5]	SEM cells [1]
HPLM + 10% dialyzed FBS	328	345	453
RPMI 5 mM glucose + 10% FBS	305	356	477
RPMI 5 mM glucose + 10% dialyzed FBS	318	374	446

cell viability [%], SEM cells [4]
Settings	HPLM + 10% dialyzed FBS	RPMI 5 mM glucose + 10% dialyzed FBS
0.000781 µM	106	103
0.00234 µM	121	126
0.00702 µM	124	125
0.0211 µM	109	115
0.0632 µM	145	140
0.19 µM	138	158
0.569 µM	119	146
1.71 µM	150	156
5.12 µM	151	126
15.4 µM	142	146
46.1 µM	111	125

CC[C@@H]1/C=C(\C)C[C@H](C)C[C@H](OC)[C@H]2O[C@@](O)(C(=O)C(=O)N3CCCC[C@H]3C(=O)O[C@H](/C(C)=C/[C@@H]3CC[C@H](Cl)[C@H](OC)C3)[C@H](C)[C@@H](O)CC1=O)[C@H](C)C[C@@H]2OC
AUC of viability dose-response curve
Settings	NOMO1 [2]	P12-Ichikawa [5]	SEM cells [1]
HPLM + 10% dialyzed FBS	457	467	451
RPMI 5 mM glucose + 10% FBS	466	456	453
RPMI 5 mM glucose + 10% dialyzed FBS	474	468	449

SEM cells [4], HPLM + 10% dialyzed FBS
Settings	cell viability [%]
0.000781 µM	115
0.00234 µM	128
0.00702 µM	117
0.0211 µM	135
0.0632 µM	122
0.19 µM	128
0.569 µM	117
1.71 µM	109
5.12 µM	109
15.4 µM	105
46.1 µM	104

CC(C)(C)c1cnc(CSc2cnc(NC(=O)C3CCNCC3)s2)o1
AUC of viability dose-response curve
Settings	NOMO1 [2]	P12-Ichikawa [5]	SEM cells [1]
HPLM + 10% dialyzed FBS	289	250	297
RPMI 5 mM glucose + 10% FBS	321	321	309
RPMI 5 mM glucose + 10% dialyzed FBS	312	330	311

CC(=O)NCCC(=O)N[C@@H](CCC(N)=O)C(=O)N[C@@H](CO)C(=O)N[C@@H](CCC(N)=O)C(=O)N[C@@H](CCC(N)=O)C(=O)N[C@H](C(=O)N[C@@H](Cc1ccccc1)C(=O)N[C@]1(C)CCCCCC/C=C\CCC[C@@](C)(C(=O)N[C@@H](CCC(N)=O)C(=O)N[C@@H](CC(N)=O)C(N)=O)NC(=O)[C@H](CC(C)C)NC(=O)[C@H](CC(C)C)NC(=O)[C@@H](CCCNC(=N)N)NC(=O)[C@H](Cc2c[nH]c3ccccc23)NC(=O)[C@H](CC(C)C)NC(=O)[C@H](CC(N)=O)NC1=O)[C@H](C)O
AUC of viability dose-response curve
Settings	NOMO1 [2]	P12-Ichikawa [5]	SEM cells [1]
HPLM + 10% dialyzed FBS	456	461	376
RPMI 5 mM glucose + 10% FBS	451	460	321
RPMI 5 mM glucose + 10% dialyzed FBS	426	437	346

Cc1cccc(CN2CCN(C(c3ccccc3)c3ccc(Cl)cc3)CC2)c1 (configuration not stated)
AUC of viability dose-response curve
Settings	NOMO1 [2]	P12-Ichikawa [5]	SEM cells [1]
HPLM + 10% dialyzed FBS	464	460	436
RPMI 5 mM glucose + 10% FBS	451	429	444
RPMI 5 mM glucose + 10% dialyzed FBS	460	456	443

SEM cells [4], RPMI 5 mM glucose + 10% dialyzed FBS
Settings	cell viability [%]
0.000781 µM	144
0.00234 µM	121
0.00702 µM	122
0.0211 µM	130
0.0632 µM	45.3
0.19 µM	104
0.569 µM	135
1.71 µM	126
5.12 µM	82.2
15.4 µM	121
46.1 µM	113
